US8097635B2, “Insulin resistance improving agent” (Kyowa Hakko Bio Co., Ltd., priority 2006, dated 2012)

Columns and labels:
Type in all cases: in vivo
[1] = Body weight of type II diabetes model mice, Test Example 1; conditions: for Body weight: 10 mL/kg orally once a day
From the text: Twenty seven (27) BKS. Cg-+Lepr^db/+Lepr^db/JcI mice (Clea Japan Inc., female, 7 week old), which were type II diabetes model mice expressing the symptoms of hyperinsulinemia due to insulin resistance, were divided into 3 groups each consisting of 9 mice. The groups were designated as group 1, group 2, and group 3.
Mice of the groups 1 to 3 were fed with free access to pellets CE-2 (Clea Japan Inc.; hereinafter referred to as “CE-2”) for feeding mice and rats. To the mice of group 1, 0.5 w/v % methyl cellulose (0.5 w/v % methyl cellulose 400 cP solution, sterilized, produced by Wako Pure Chemical Industries, Ltd. for biochemistry; hereinafter referred to as “0.5% MC”) was administered orally once a day (10 mL/kg). To the mice of group 2, a pyrroloquinoline quinone disodium salt (hereinafter referred to as “PQQ disodium salt,” produced by Mitsubishi Gas Chemical Company, Inc.) suspended in 0.5% MC to a concentration of 0.5 mg/mL was administered orally once a day (10 mL/kg). To the mice of group 3, a PQQ disodium salt suspended in 0.5% MC to a concentration of 2 mg/mL was administered orally once a day (10 mL/kg).

[2] = test system: BKS. Cg-+Lepr^db/+Lepr^db/JcI mice (type II diabetes model mice); assay: Nonfasting blood serum glucose level, Test Example 1; conditions: for Blood glucose level: non-fasting, 10 mL/kg orally once a day
From the text: (§1) Twenty seven (27) BKS. Cg-+Lepr^db/+Lepr^db/JcI mice (Clea Japan Inc., female, 7 week old), which were type II diabetes model mice expressing the symptoms of hyperinsulinemia due to insulin resistance, were divided into 3 groups each consisting of 9 mice. The groups were designated as group 1, group 2, and group 3. Mice of the groups 1 to 3 were fed with free access to pellets CE-2 (Clea Japan Inc.; hereinafter referred to as “CE-2”) for feeding mice and rats. To the mice of group 1, 0.5 w/v % methyl cellulose (0.5 w/v % methyl cellulose 400 cP solution, sterilized, produced by Wako Pure Chemical Industries, Ltd. for biochemistry; hereinafter referred to as “0.5% MC”) was administered orally once a day (10 mL/kg). To the mice of group 2, a pyrroloquinoline quinone disodium salt (hereinafter referred to as “PQQ disodium salt,” produced by Mitsubishi Gas Chemical Company, Inc.) suspended in 0.5% MC to a concentration of 0.5 mg/mL was administered orally once a day (10 mL/kg). To the mice of group 3, a PQQ disodium salt suspended in 0.5% MC to a concentration of 2 mg/mL was administered orally once a day (10 mL/kg). Blood was collected from the orbital veins on day 14 and day 28 after the initiation of the test, and thus serum was obtained. Nonfasting blood serum glucose levels and nonfasting serum insulin concentrations were separately measured using a glucose C-II Test Wako (produced by Wako Pure Chemical Industries, Ltd.) and a Mouse Insulin ELISA Kit (S-type) (produced by Shibayagi Co., Ltd.), respectively. After 18 hours of fasting from day 28 to day 29 after the initiation of the test, a 40% (w/v) glucose aqueous solution was administered orally to each mouse at 2 g/kg B.W., so as to load the mice with glucose (to test the glucose tolerance). Blood was collected from tail veins at the time of administration of a glucose aqueous solution (0 minute) and then at a certain time point after administration (120 minutes). Blood glucose levels were measured using a Medisafe Reader GR-101 (produced by Terumo Corporation). […] Blood serum glucose levels and serum insulin concentrations were separately measured using a glucose C-II Test Wako and a Mouse Insulin ELISA Kit (S-type), respectively. The results were expressed as average levels±standard deviation (n=9). Statistical significance levels (p-values) were found by a t-test (group 1 with respect to group 2; and group 1 with respect to group 3).

[3] = test system: BKS. Cg-+Lepr^db/+Lepr^db/JcI mice (type II diabetes model mice); assay: Nonfasting serum insulin concentration, Test Example 1; conditions: for Serum insulin concentration: non-fasting, 10 mL/kg orally once a day
From the text: as §1

[4] = test system: BKS. Cg-+Lepr^db/+Lepr^db/JcI mice (type II diabetes model mice); assay: Glucose tolerance test, Test Example 1; conditions: for Blood glucose level: glucose tolerance test day 29, glucose 2 g/kg orally after 18 h fasting, 10 mL/kg orally once a day
From the text: as §1

[5] = test system: BKS. Cg-+Lepr^db/+Lepr^db/JcI mice (type II diabetes model mice); assay: Fasting blood serum glucose level on day 32, Test Example 1; conditions: for Blood glucose level: fasting, day 32 after initiation of test, 10 mL/kg orally once a day; for Fasting blood glucose levels compared with group 1 (0.5% MC): day 32
From the text: as §1

[6] = test system: BKS. Cg-+Lepr^db/+Lepr^db/JcI mice (type II diabetes model mice); assay: Fasting serum insulin concentration on day 32, Test Example 1; conditions: for Insulin concentration: day 32 after initiation of test, 10 mL/kg orally once a day
From the text: Twenty seven (27) BKS. Cg-+Lepr^db/+Lepr^db/JcI mice (Clea Japan Inc., female, 7 week old), which were type II diabetes model mice expressing the symptoms of hyperinsulinemia due to insulin resistance, were divided into 3 groups each consisting of 9 mice. The groups were designated as group 1, group 2, and group 3. Mice of the groups 1 to 3 were fed with free access to pellets CE-2 (Clea Japan Inc.; hereinafter referred to as “CE-2”) for feeding mice and rats. To the mice of group 1, 0.5 w/v % methyl cellulose (0.5 w/v % methyl cellulose 400 cP solution, sterilized, produced by Wako Pure Chemical Industries, Ltd. for biochemistry; hereinafter referred to as “0.5% MC”) was administered orally once a day (10 mL/kg). To the mice of group 2, a pyrroloquinoline quinone disodium salt (hereinafter referred to as “PQQ disodium salt,” produced by Mitsubishi Gas Chemical Company, Inc.) suspended in 0.5% MC to a concentration of 0.5 mg/mL was administered orally once a day (10 mL/kg). To the mice of group 3, a PQQ disodium salt suspended in 0.5% MC to a concentration of 2 mg/mL was administered orally once a day (10 mL/kg). Blood was collected from the orbital veins on day 14 and day 28 after the initiation of the test, and thus serum was obtained. Nonfasting blood serum glucose levels and nonfasting serum insulin concentrations were separately measured using a glucose C-II Test Wako (produced by Wako Pure Chemical Industries, Ltd.) and a Mouse Insulin ELISA Kit (S-type) (produced by Shibayagi Co., Ltd.), respectively. […] Blood glucose levels were measured using a Medisafe Reader GR-101 (produced by Terumo Corporation). […] Blood serum glucose levels and serum insulin concentrations were separately measured using a glucose C-II Test Wako and a Mouse Insulin ELISA Kit (S-type), respectively. The results were expressed as average levels±standard deviation (n=9). […]

[7] = test system: type II diabetes model KK-AY/Ta JcI mice; assay: Glucose tolerance test, Test Example 2; conditions: for Blood glucose level: glucose tolerance test day 15, glucose 1 g/kg orally after 18 h fasting, 10 mL/kg orally once a day; for Blood glucose levels in glucose tolerance test compared with group 1 (0.5% MC): 30, 60 and 120 minutes after glucose
Description: Eighteen type II diabetes model KK-AY/Ta JcI mice (Clea Japan Inc., male, 6 week old) were divided into 3 groups (6 mice in group 1, 7 mice in group 2, and 5 mice in group 3). The groups were designated as group 1, group 2, and group 3, respectively. Mice of the groups 1 to 3 were fed with free access to pellets CE-2 for feeding mice and rats. To the mice of group 1, 0.5% MC was administered orally once a day (10 mL/kg). To the mice of group 2, a PQQ disodium salt suspended in 0.5% MC to a concentration of 0.5 mg/mL was administered orally once a day (10 mL/kg). To the mice of group 3, a PQQ disodium salt suspended in 0.5% MC to a concentration of 2 mg/mL was administered orally once a day (10 mL/kg). After 18 hours of fasting from day 14 to day 15 after the initiation of the test, a 10% (w/v) glucose aqueous solution was administered orally to each mouse at 1 g/kg B.W., so as to load the mice with glucose to test the glucose tolerance. Blood was collected from tail veins at 0 minutes, 30 minutes, 60 minutes, and 120 minutes after administration of the glucose aqueous solution. Blood glucose levels were measured using a Medisafe Reader GR-101 (produced by Terumo Corporation). […] Blood glucose levels were expressed as average levels±standard deviation (n=5-7) and statistical significance levels (p-values) were found by a t-test (group 1 with respect to group 2; and group 1 with respect to group 3).

[8] = test system: BKS. Cg-+Lepr^db/+Lepr^db/JcI mice (type II diabetes model mice); assay: Test Example 1 overall conclusion (insulin resistance, type II diabetes, body weight); conditions: Test Example 1, oral once a day for about 32 days
From the text: Twenty seven (27) BKS. Cg-+Lepr^db/+Lepr^db/JcI mice (Clea Japan Inc., female, 7 week old), which were type II diabetes model mice expressing the symptoms of hyperinsulinemia due to insulin resistance, were divided into 3 groups each consisting of 9 mice. The groups were designated as group 1, group 2, and group 3. Mice of the groups 1 to 3 were fed with free access to pellets CE-2 (Clea Japan Inc.; hereinafter referred to as “CE-2”) for feeding mice and rats. To the mice of group 1, 0.5 w/v % methyl cellulose (0.5 w/v % methyl cellulose 400 cP solution, sterilized, produced by Wako Pure Chemical Industries, Ltd. for biochemistry; hereinafter referred to as “0.5% MC”) was administered orally once a day (10 mL/kg). […] Nonfasting blood serum glucose levels and nonfasting serum insulin concentrations were separately measured using a glucose C-II Test Wako (produced by Wako Pure Chemical Industries, Ltd.) and a Mouse Insulin ELISA Kit (S-type) (produced by Shibayagi Co., Ltd.), respectively. […] Blood glucose levels were measured using a Medisafe Reader GR-101 (produced by Terumo Corporation). […] Blood serum glucose levels and serum insulin concentrations were separately measured using a glucose C-II Test Wako and a Mouse Insulin ELISA Kit (S-type), respectively. The results were expressed as average levels±standard deviation (n=9). […]

[9] = group 2: 0.5 mg/mL, day 14 after initiation of test
[10] = group 2: 0.5 mg/mL, day 28 after initiation of test
[11] = group 3: 2 mg/mL, day 14 after initiation of test
[12] = group 3: 2 mg/mL, day 28 after initiation of test
[13] = group 2 (0.5 mg/mL, 10 mL/kg orally once a day)
[14] = group 3 (2 mg/mL, 10 mL/kg orally once a day)

O=C(O)c1cc(C(=O)O)c2c(n1)C(=O)C(=O)c1cc(C(=O)O)[nH]c1-2.[Na].[Na] [PQQ disodium salt, pyrroloquinoline quinone disodium salt]
Body weight ([1]; group 2: 0.5 mg/mL in 0.5% MC, day 0 (test initiated)): 29.90 ± 0.37 g
Body weight ([1]; group 2: 0.5 mg/mL in 0.5% MC, day 31): 37.18 ± 0.65 g
Body weight ([1]; group 3: 2 mg/mL in 0.5% MC, day 0 (test initiated)): 29.93 ± 0.51 g
Body weight ([1]; group 3: 2 mg/mL in 0.5% MC, day 31): 39.01 ± 1.07 g
Body weights compared with group 1 (0.5% MC) ([1]; groups 2 and 3 (0.5 and 2 mg/mL, 10 mL/kg orally once a day), after completion of the test): almost the same as those of group 1
Non-fasting blood glucose levels compared with group 1 (0.5% MC) ([2]; groups 2 and 3 (0.5 and 2 mg/mL, 10 mL/kg orally once a day), day 14 and day 28): lower than those of group 1
Blood glucose level [2, 9]: 427.7 ± 11.4 mg/dL
Blood glucose level [2, 10]: 531.5 ± 12.3 mg/dL
Blood glucose level [2, 11]: 405.7 ± 24.1 mg/dL
Blood glucose level [2, 12]: 546.1 ± 26.0 mg/dL
Serum insulin concentrations compared with group 1 (0.5% MC) ([3]; groups 2 and 3 (0.5 and 2 mg/mL, 10 mL/kg orally once a day), day 14 and 28): lower than those of group 1
Serum insulin concentration [3, 9]: 4.02 ± 0.75 ng/mL
Serum insulin concentration [3, 10]: 3.02 ± 0.47 ng/mL
Serum insulin concentration [3, 11]: 6.23 ± 1.69 ng/mL
Serum insulin concentration [3, 12]: 4.82 ± 1.81 ng/mL
Blood glucose level ([4]; group 2: 0.5 mg/mL, 0 minute): 281.3 ± 16.3 mg/dL
Blood glucose level ([4]; group 2: 0.5 mg/mL, 120 minutes): 522.0 ± 22.9 mg/dL
Blood glucose level ([4]; group 3: 2 mg/mL, 0 minute): 303.4 ± 25.9 mg/dL
Blood glucose level ([4]; group 3: 2 mg/mL, 120 minutes): 489.3 ± 47.5 mg/dL
Blood glucose levels in glucose tolerance test compared with group 1 (0.5% MC) ([4]; groups 2 and 3 (0.5 and 2 mg/mL, 10 mL/kg orally once a day), 120 minutes after glucose): lower than those of group 1
Blood glucose level ([5]; group 2: 0.5 mg/mL): 617.7 ± 39.1 mg/dL
Blood glucose level ([5]; group 3: 2 mg/mL, *p < 0.05 with respect to group 1): 575.6 ± 33.3* mg/dl
Fasting blood glucose levels compared with group 1 (0.5% MC) [5, 13]: lower than those of group 1
Fasting blood glucose levels compared with group 1 (0.5% MC) [5, 14]: significantly lower than those of group 1
Insulin concentration ([6]; group 2: 0.5 mg/mL): 4.88 ± 0.75 ng/mL
Insulin concentration ([6]; group 3: 2 mg/mL): 4.4 ± 0.66 ng/mL
Serum insulin concentrations compared with group 1 (0.5% MC) ([6]; groups 2 and 3 (0.5 and 2 mg/mL, 10 mL/kg orally once a day), day 32): lower than those of group 1
Overall effect on type II diabetes ([7]; Test Example 2, model mice with a gene mutation differing from test example 1): exerts a therapeutic effect on type II diabetes
Blood glucose level ([7]; group 2: 0.5 mg/mL, 0 minutes): 116.7 ± 10.1 mg/dL
Blood glucose level ([7]; group 2: 0.5 mg/mL, 30 minutes, ***p < 0.001 with respect to group 1): 274.9 ± 8.4*** mg/dl
Blood glucose level ([7]; group 2: 0.5 mg/mL, 60 minutes, *p < 0.05 with respect to group 1): 264.6 ± 7.6* mg/dl
Blood glucose level ([7]; group 2: 0.5 mg/mL, 120 minutes, **p < 0.01 with respect to group 1): 184.3 ± 7.8** mg/dl
Blood glucose level ([7]; group 3: 2 mg/mL, 0 minutes): 117.0 ± 12.2 mg/dL
Blood glucose level ([7]; group 3: 2 mg/mL, 30 minutes): 300.0 ± 24.1 mg/dL
Blood glucose level ([7]; group 3: 2 mg/mL, 60 minutes): 261.6 ± 25.6 mg/dL
Blood glucose level ([7]; group 3: 2 mg/mL, 120 minutes): 187.4 ± 20.3 mg/dL
Blood glucose levels in glucose tolerance test compared with group 1 (0.5% MC) [7, 13]: significantly lower than those of group 1
Blood glucose levels in glucose tolerance test compared with group 1 (0.5% MC) [7, 14]: lower than those of group 1
Overall effect on insulin resistance, type II diabetes and body weight [8]: exerts an effect of improving insulin resistance and a therapeutic effect on type II diabetes without body weight gain
